Read-outs that look alike come from different tables or passages of the source.
Columns and labels:
[1] = system: corn plants (variety NK OCTET); experiment: Reduced plant water use in corn (foliar spray, repeated weighing of pots); assay type: in vivo; conditions: Zea mays, corn plants sprayed at 500 μM, average of 6 pots
Description: Compounds were tested for their effect on reducing plant water use as follows. The compounds were applied by foliar spray to 12 day old corn plants (variety NK OCTET) grown in controlled environment plant growth chambers. All compounds were applied using an emulsifiable concentrate (EC) formulation that was diluted to the desired concentrations with water containing 0.4% of the adjuvant rape seed methyl ester. Plant water use during the day was assessed by repeated weighing of the pots in which the plants were grown before and after application of the compounds at the indicated times (expressed in days after application (DAA)). The water use data before application was used to correct any differences in water use arising due to non-treatment effects (e.g. due to differences in plant size). The untransformed water use values were subjected to an analysis of covariance, fitting the effect of treatment and using the baseline water use 1 day before application as a covariate. Application of the chemicals (0 DAA) takes place approximately between 08:00 and 09:30 a.m. WU is measured within day time (chamber light is on 06:00 to 20:00) at these timepoints: 0 DAA a.m. (10:30-12:50), 0 DAA p.m. (14:00-19:50), 1 DAA a.m. (07:30-12:50), 1 DAA p.m. (14:00-19:50), 2 DAA a.m. (07:30-12:50) and 2 DAA p.m. (14:00-19:50). The cumulative total WU (0-2.5 DAA) is calculated by summing the WU data mentioned above.

[2] = 0 h, water use during day time vs negative control, 0 DAA a.m. (10:30-12:50), read-out: % WU 0 DAA AM
[3] = 0 h, water use during day time vs negative control, 0 DAA p.m. (14:00-19:50), read-out: % WU 0DAA PM
[4] = 24 h, water use during day time vs negative control, 1 DAA a.m. (07:30-12:50), read-out: % WU 1DAA AM
[5] = 24 h, water use during day time vs negative control, 1 DAA p.m. (14:00-19:50), read-out: % WU 1DAA PM
[6] = 48 h, water use during day time vs negative control, 2 DAA a.m. (07:30-12:50), read-out: % WU 2 DAA AM
[7] = 48 h, water use during day time vs negative control, 2 DAA p.m. (14:00-19:50), read-out: % WU 2 DAA PM
[8] = 60 h, cumulative total water use 0-2.5 DAA (sum of the time points) vs negative control, read-out: % WU Total 0 to 2.5 DAA

melting point	SMILES	change in vivo at 500 µM [1, 2]	change in vivo at 500 µM [1, 3]	change in vivo at 500 µM [1, 4]	change in vivo at 500 µM [1, 5]	change in vivo at 500 µM [1, 6]	change in vivo at 500 µM [1, 7]	change in vivo at 500 µM [1, 8]
180 to 181 °C	CCN1C(=O)CCc2cc(CNS(=O)(=O)c3ccc(C(F)(F)F)cc3)ccc21 [Compound 2.015, N-[(1-ethyl-2-oxo-3,4-dihydroquinolin-6-yl)methyl]-4-(trifluoromethyl)benzenesulfonamide]	-8.9%	-3.4%	-4%	-2.6%	-1.9%	-1%	-2.9%
134 to 137 °C	CCN1C(=O)CCc2cc(CNS(=O)(=O)/C=C/c3ccccc3)ccc21 [Compound 2.051, (E)-N-[(1-ethyl-2-oxo-3,4-dihydroquinolin-6-yl)methyl]-2-phenyl-ethenesulfonamide]	-13.2%	-8.5%	-10.7%	-8.6%	-8.7%	-6.5%	-9.1%
149 to 151 °C	CCN1C(=O)CCc2cc(CNS(=O)(=O)/C=C/c3cccc(Cl)c3)ccc21 [Compound 2.069, (E)-2-(3-chlorophenyl)-N-[(1-ethyl-2-oxo-3,4-dihydroquinolin-6-yl)methyl]ethenesulfonamide]	-6.5%	-3.5%	-3.3%	-3.7%	-2.1%	-1.9%	-3.2%
144 to 147 °C	CCN1C(=O)CCc2cc(CNS(=O)(=O)/C=C/c3cccc(Br)c3)ccc21 [Compound 2.070, (E)-2-(3-bromophenyl)-N-[(1-ethyl-2-oxo-3,4-dihydroquinolin-6-yl)methyl]ethenesulfonamide]	-8.1%	-4.1%	-6.1%	-5.5%	-4.8%	-3.8%	-5%
138 to 139 °C	CCCN1C(=O)CCc2cc(CNS(=O)(=O)c3ccc(Cl)cc3)ccc21 [Compound 3.004, 4-chloro-N-[(2-oxo-1-propyl-3,4-dihydroquinolin-6-yl)methyl]benzenesulfonamide]	-17.3%	-12.5%	-14.1%	-12.9%	-11.8%	-10.7%	-12.8%
157 to 159 °C	CCCN1C(=O)CCc2cc(CNS(=O)(=O)c3ccccc3Br)ccc21 [Compound 3.017, 2-bromo-N-[(2-oxo-1-propyl-3,4-dihydroquinolin-6-yl)methyl]benzenesulfonamide]	-5.8%	-3.1%	-3.1%	-2.5%	-1.8%	-2.1%	-2.7%
165 to 168 °C	CCCN1C(=O)CCc2cc(CNS(=O)(=O)/C=C/c3ccccc3)ccc21 [Compound 3.051, (E)-N-[(2-oxo-1-propyl-3,4-dihydroquinolin-6-yl)methyl]-2-phenyl-ethenesulfonamide]	-11.2%	-6.4%	-8.1%	-5.5%	-5.4%	-4.3%	-6.2%
150 to 152 °C	CCCN1C(=O)CCc2cc(CNS(=O)(=O)/C=C/c3ccc(Br)cc3)ccc21 [Compound 3.052, (E)-2-(4-bromophenyl)-N-[(2-oxo-1-propyl-3,4-dihydroquinolin-6-yl)methyl]ethenesulfonamide]	-9.6%	-4.6%	-4.5%	-4.5%	-2.2%	-2.5%	-4.1%

— patent US10392348B2, “2-oxo-3,4-dihydroquinoline compounds as plant growth regulators” (Syngenta Participations AG, priority 2015, dated 2019)
